# Source: article doi:10.1101/2024.02.29.582594, “Hachiman is a genome integrity sensor” (bioRxiv, 2024)
# Target: T1, HamB (Escherichia coli, UniProt A0A426EXV0)
# T1 construct: gene DU321_04165; full-length HamB alone, N-terminal 10xHis-MBP-TEV, tag cut with TEV; expressed in E. coli BL21-AI
# T1 sequence (A0A426EXV0 1-1174): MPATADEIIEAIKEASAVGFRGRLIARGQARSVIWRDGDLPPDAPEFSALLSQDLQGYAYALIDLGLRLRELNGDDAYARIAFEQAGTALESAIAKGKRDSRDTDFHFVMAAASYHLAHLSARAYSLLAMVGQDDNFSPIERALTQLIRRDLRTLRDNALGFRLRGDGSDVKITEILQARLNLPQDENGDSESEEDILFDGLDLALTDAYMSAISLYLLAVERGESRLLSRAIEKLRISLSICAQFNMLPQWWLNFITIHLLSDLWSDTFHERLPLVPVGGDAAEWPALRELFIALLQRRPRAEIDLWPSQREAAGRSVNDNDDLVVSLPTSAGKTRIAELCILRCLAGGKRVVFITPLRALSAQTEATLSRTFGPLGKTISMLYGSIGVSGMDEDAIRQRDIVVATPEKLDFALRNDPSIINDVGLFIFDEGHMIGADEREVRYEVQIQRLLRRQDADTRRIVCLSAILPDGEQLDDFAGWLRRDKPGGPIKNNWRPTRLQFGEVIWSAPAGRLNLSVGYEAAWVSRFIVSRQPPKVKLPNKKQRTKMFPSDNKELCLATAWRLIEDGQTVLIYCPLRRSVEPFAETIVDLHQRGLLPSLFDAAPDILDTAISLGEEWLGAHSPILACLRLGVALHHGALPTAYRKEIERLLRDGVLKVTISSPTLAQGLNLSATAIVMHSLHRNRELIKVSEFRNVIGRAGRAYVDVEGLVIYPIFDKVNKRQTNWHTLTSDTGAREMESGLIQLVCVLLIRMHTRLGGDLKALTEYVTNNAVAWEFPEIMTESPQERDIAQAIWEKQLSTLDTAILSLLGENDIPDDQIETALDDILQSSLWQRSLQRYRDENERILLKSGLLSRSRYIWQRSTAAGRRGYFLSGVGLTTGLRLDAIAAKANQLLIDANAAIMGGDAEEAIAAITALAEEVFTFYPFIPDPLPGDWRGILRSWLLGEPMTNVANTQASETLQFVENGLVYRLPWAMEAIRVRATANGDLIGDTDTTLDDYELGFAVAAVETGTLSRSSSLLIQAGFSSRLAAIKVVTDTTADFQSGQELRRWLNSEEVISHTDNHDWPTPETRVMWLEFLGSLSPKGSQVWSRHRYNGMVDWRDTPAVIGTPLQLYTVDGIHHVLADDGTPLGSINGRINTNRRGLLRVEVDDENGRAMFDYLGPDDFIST
# Experiment: malachite green phosphate release assay
# Format: biochemical
# Details: 40 nM HamB, 100 nM ssDNA, 1 mM ATP, 2 mM MgSO4, pH 8.8, 37 °C, 30 min
smiles,measurement,value
Nc1ncnc2c1ncn2[C@@H]1O[C@H](COP(=O)(O)OP(=O)(O)OP(=O)(O)O)[C@@H](O)[C@H]1O [ATP],malachite green phosphate release assay,we found strong HamB ATPase activity in the presence of single-stranded DNA
